PubChem BioAssay (NCI)
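All cell lines were grown in 96-well plates and treated with compound for 48 hours. The concentration for 50% growth inhibition is given as GI50. Definition used: TGI = concentration required for complete inhibition of growth.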

Key:
Assay in all cases: NCI-60 cell line screen, 48 h; in the data active = GI50 below about 0.43 µM; inactive = the rest
COLO 205 colon = system: COLO 205 colon
LOX IMVI melanoma = system: LOX IMVI melanoma
MDA-MB-231 breast = system: MDA-MB-231 breast
SK-OV-3 ovarian = system: SK-OV-3 ovarian
OVCAR-5 ovarian = system: OVCAR-5 ovarian
RPMI-8226 leukemia = system: RPMI-8226 leukemia
786-0 renal = system: 786-0 renal
U251 CNS = system: U251 CNS
HOP-92 NSCLC = system: HOP-92 NSCLC
HT29 colon = system: HT29 colon
MCF7 breast = system: MCF7 breast
SW-620 colon = system: SW-620 colon
SNB-19 CNS = system: SNB-19 CNS
EKVX NSCLC = system: EKVX NSCLC
MOLT-4 leukemia = system: MOLT-4 leukemia
KM12 colon = system: KM12 colon
OVCAR-4 ovarian = system: OVCAR-4 ovarian
BT-549 breast = system: BT-549 breast
A498 renal = system: A498 renal
M14 melanoma = system: M14 melanoma
CAKI-1 renal = system: CAKI-1 renal
SF-295 CNS = system: SF-295 CNS
CCRF-CEM leukemia = system: CCRF-CEM leukemia
SF-268 CNS = system: SF-268 CNS
NCI-H522 lung = system: NCI-H522 lung
PC-3 prostate = system: PC-3 prostate
MDA-MB-435 = system: MDA-MB-435
UACC-257 melanoma = system: UACC-257 melanoma
SK-MEL-28 melanoma = system: SK-MEL-28 melanoma
HCT-116 colon = system: HCT-116 colon
HS 578T breast = system: HS 578T breast
UO-31 renal = system: UO-31 renal
OVCAR-8 ovarian = system: OVCAR-8 ovarian
SN12C renal = system: SN12C renal
ACHN renal = system: ACHN renal
UACC-62 melanoma = system: UACC-62 melanoma
MALME-3M melanoma = system: MALME-3M melanoma
T-47D breast = system: T-47D breast
SK-MEL-2 melanoma = system: SK-MEL-2 melanoma
SR leukemia = system: SR leukemia
SF-539 CNS = system: SF-539 CNS
HL-60(TB) leukemia = system: HL-60(TB) leukemia
OVCAR-3 ovarian = system: OVCAR-3 ovarian
NCI-H23 lung = system: NCI-H23 lung
DU-145 prostate = system: DU-145 prostate
A549 NSCLC = system: A549 NSCLC
K-562 leukemia = system: K-562 leukemia
SK-MEL-5 melanoma = system: SK-MEL-5 melanoma
HCT-15 colon = system: HCT-15 colon
RXF 393 renal = system: RXF 393 renal
NCI-H460 lung = system: NCI-H460 lung
NCI/ADR-RES ovarian = system: NCI/ADR-RES ovarian
HCC-2998 colon = system: HCC-2998 colon
HOP-62 NSCLC = system: HOP-62 NSCLC
SNB-75 CNS = system: SNB-75 CNS
TK-10 renal = system: TK-10 renal
NCI-H226 lung = system: NCI-H226 lung

COc1cc2c3c(n(CCCBr)c(=O)c2cc1OC)-c1ccc(F)cc1C3=O
1.73 µM: TGI (SR leukemia)
99.6 µM: TGI (OVCAR-3 ovarian)
17.9 µM: TGI (786-0 renal)
62 µM: TGI (T-47D breast)
30.6 µM: TGI (HCT-116 colon)
33.7 µM: TGI (CAKI-1 renal)
8.94 µM: TGI (CCRF-CEM leukemia)
60.4 µM: TGI (UO-31 renal)
40.9 µM: TGI (A498 renal)
20.6 µM: TGI (DU-145 prostate)
28.4 µM: TGI (HOP-92 NSCLC)
24.1 µM: TGI (SK-MEL-5 melanoma)
> 100 µM: TGI (COLO 205 colon) | TGI (MDA-MB-231 breast) | TGI (OVCAR-5 ovarian) | TGI (HT29 colon) | TGI (MCF7 breast) | TGI (SW-620 colon) | TGI (SNB-19 CNS) | TGI (EKVX NSCLC) | TGI (KM12 colon) | TGI (OVCAR-4 ovarian) | TGI (M14 melanoma) | TGI (SF-268 CNS) | TGI (PC-3 prostate) | TGI (MDA-MB-435) | TGI (UACC-257 melanoma) | TGI (SK-MEL-28 melanoma) | TGI (HS 578T breast) | TGI (OVCAR-8 ovarian) | TGI (SN12C renal) | TGI (MALME-3M melanoma) | TGI (HL-60(TB) leukemia) | TGI (A549 NSCLC) | TGI (K-562 leukemia) | TGI (HCT-15 colon) | TGI (RXF 393 renal) | TGI (NCI/ADR-RES ovarian) | TGI (HCC-2998 colon) | TGI (TK-10 renal) | TGI (NCI-H226 lung)
9.23 µM: TGI (SF-295 CNS)
76.4 µM: TGI (NCI-H23 lung)
59 µM: TGI (SK-OV-3 ovarian)
24.5 µM: TGI (UACC-62 melanoma)
36.3 µM: TGI (NCI-H522 lung) | TGI (ACHN renal)
15.2 µM: TGI (SF-539 CNS)
24.3 µM: TGI (U251 CNS)
49.7 µM: TGI (BT-549 breast)
28.2 µM: TGI (SNB-75 CNS)
38.1 µM: TGI (RPMI-8226 leukemia)
inactive: GI50 (COLO 205 colon) 33.4 µM | GI50 (LOX IMVI melanoma) 5.48 µM | GI50 (MDA-MB-231 breast) 66.3 µM | GI50 (SK-OV-3 ovarian) 15.8 µM | GI50 (OVCAR-5 ovarian) 50 µM | GI50 (RPMI-8226 leukemia) 12.6 µM | GI50 (786-0 renal) 4.73 µM | GI50 (U251 CNS) 3.74 µM | GI50 (HOP-92 NSCLC) 4.07 µM | GI50 (HT29 colon) 16.9 µM | GI50 (MCF7 breast) 4.1 µM | GI50 (SW-620 colon) 7.02 µM | GI50 (SNB-19 CNS) 6.34 µM | GI50 (EKVX NSCLC) 49.5 µM | GI50 (MOLT-4 leukemia) 2.89 µM | GI50 (KM12 colon) 35.3 µM | GI50 (OVCAR-4 ovarian) 40 µM | GI50 (BT-549 breast) 13.9 µM | GI50 (A498 renal) 14.8 µM | GI50 (M14 melanoma) 8.92 µM | GI50 (CAKI-1 renal) 7.9 µM | GI50 (SF-295 CNS) 1.69 µM | GI50 (CCRF-CEM leukemia) 1.99 µM | GI50 (SF-268 CNS) 10.4 µM | GI50 (NCI-H522 lung) 4.9 µM | GI50 (PC-3 prostate) 45.8 µM | GI50 (MDA-MB-435) 43.9 µM | GI50 (UACC-257 melanoma) 76.4 µM | GI50 (SK-MEL-28 melanoma) 39.8 µM | GI50 (HCT-116 colon) 5.72 µM | GI50 (HS 578T breast) 32 µM | GI50 (UO-31 renal) 5.57 µM | GI50 (OVCAR-8 ovarian) 26.4 µM | GI50 (SN12C renal) 15.6 µM | GI50 (ACHN renal) 4.47 µM | GI50 (UACC-62 melanoma) 3.93 µM | GI50 (MALME-3M melanoma) 43 µM | GI50 (T-47D breast) 4.86 µM | GI50 (SK-MEL-2 melanoma) 23 µM | GI50 (SF-539 CNS) 3.54 µM | GI50 (HL-60(TB) leukemia) 24.8 µM | GI50 (OVCAR-3 ovarian) 24.6 µM | GI50 (NCI-H23 lung) 17.8 µM | GI50 (DU-145 prostate) 4.33 µM | GI50 (A549 NSCLC) 36.8 µM | GI50 (K-562 leukemia) 16.3 µM | GI50 (SK-MEL-5 melanoma) 10.9 µM | GI50 (HCT-15 colon) 48.7 µM | GI50 (RXF 393 renal) 34.4 µM | GI50 (NCI-H460 lung) 2.38 µM | GI50 (NCI/ADR-RES ovarian) 13.3 µM | GI50 (HCC-2998 colon) 13.7 µM | GI50 (HOP-62 NSCLC) 4.21 µM | GI50 (SNB-75 CNS) 12.9 µM | GI50 (TK-10 renal) 32.7 µM | GI50 (NCI-H226 lung) 28 µM
active: GI50 (SR leukemia) 0.28 µM
25 µM: TGI (HOP-62 NSCLC)
80.6 µM: TGI (SK-MEL-2 melanoma)
47.2 µM: TGI (NCI-H460 lung)
30.1 µM: TGI (LOX IMVI melanoma)
10.6 µM: TGI (MOLT-4 leukemia)
